Test results: patent publication US20130261133A1, “Therapeutic Compounds for Protozoal and Microbial Infections and Cancer” (THE UNIVERSITY OF MONTANA, priority 2012, published 2013)
Converted amounts (≈) assume the structure as drawn. “And” between values parts separate entries of the source, which are not always exact repeats. Equal entries are not always repeated. Where two headings read alike, the source gives them in different places.

Assays:
S. pyogenes = assay: MIC broth microdilution, Alamar Blue; format: cell-based; conditions: minimum inhibitory concentration
C. albicans = assay: MIC broth microdilution, Alamar Blue; format: cell-based; conditions: minimum inhibitory concentration
HepG2 cells = assay: Cytotoxicity against human liver (HepG2) cells, Alamar Blue; format: cell-based
Method: Several of these analogues were also evaluated for cytotoxicity against human liver (HepG2) cells. Of particular interest was that compounds 47 and 48 were approximately an order of magnitude less cytotoxic as compared to compound 1.
Adherent cell lines were maintained in Eagle's Minimal Essential Media (Sigma-Aldrich, St. Louis, Mo., USA) with 2 mM glutamine and Earle's Balanced Salt Solution (HyClone, Logan, Utah, USA) adjusted to contain 1.5 g/L sodium bicarbonate, 0.1 mM non-essential amino acids, 1 mM sodium pyruvate and 10% fetal calf serum. Fetal calf serum used in these assays was lot matched throughout. All cultures were maintained under a humidified 5% CO2 atmosphere at 37° C., had media refreshed twice weekly and were subcultured by trypsinization and resuspension at a ratio of 1:5 each week. Toxicity assays were conducted between passages 10-20. Target compound toxicity was measured by incubating the test compound with the cells for 4 hours, washing the cells and finally treating the cells with Alamar Blue. After 12-24 hours, the fluorescence of the reduced dye was measured. Fluorescence intensity as a function of test compound concentration was fit to the Fermi equation, using non-linear least squares regression analysis, to estimate IC50 values.

B. anthracis = format: cell-based; conditions: minimum inhibitory concentration
E. faecalis = assay: MIC broth microdilution, Alamar Blue; format: cell-based; conditions: minimum inhibitory concentration
[1] = system: P. falciparum clone W2/Indochina; assay: In vitro malaria assay, [3H]-hypoxanthine incorporation; format: cell-based; conditions: Plasmodium falciparum, W2, 72 h, read-out: IC50 Plasmodium
Method: a. In vitro Parasite Culturing: P. falciparum clone W2/Indochina was grown in continuous culture using RPMI 1640 media containing 10% heat-inactivated type A+ human plasma, sodium bicarbonate (2.4 g/L), HEPES (5.94 g/L) and 4% washed human type A+ erythrocytes. Cultures were gassed with a 90% N2, 5% O2 and 5% CO2 mixture followed by incubation at 37° C. b. Assay Preparation: Test compounds at 5 mg/mL in DMSO were diluted 1:500 and then serially diluted in duplicate over 11 concentrations. P. falciparum cultures with >70% ring stage parasites were diluted to 0.5-0.7% parasitemia and 1.5% hematocrit in RPMI 1640 media. In 96-well plates a volume of 90 μl/well of parasitized erythrocytes was added on top of 10 μL/well of the test compound. A separate plate containing chloroquine, dihydroartemisinin and atovaquone was added to each set of assay plates as control drugs. A Beckman Coulter Biomek 3000 was used to dispense test compounds, control drugs and parasitized erythrocytes into the microtiter plates. Positive and negative controls were included in each plate. Positive controls consisted of parasitized erythrocytes and negative controls consisted of non-parasitized erythrocytes at 1.5% hematocrit in RPMI 1640 media. Assay plates were placed into a modulator incubator chamber and equilibrated with 90% N2, 5% O2 and 5% CO2 mixture then incubated at 37° C. for 48 hours. After 48 hours, approximately 0.05 μCi of [^3H]-hypoxanthine monohydrochloride was added to each well of the assay plates. Plates were put back into the modulator incubation chamber, gassed with the 90% N2, 5% O2 and 5% CO2 mixture then incubated at 37° C. for an additional 24 hours. After 72 hours total incubation time the plates were frozen at −80° C. until later processed for parasite growth determinations. c. Assay Plate Processing: Assay plates were harvested using a Perkin Elmer FilterMate Harvester. The incorporation of [^3H]-hypoxanthine into nucleic acid was measured using a Perkin Elmer Topcount NXT Microplate Scintillation & Luminescence Counter. d. Data Analysis: Data analysis was performed using a custom database manager (Dataspects, Inc). Nonlinear regression analysis was used to calculate EC50.

B. subtilis = assay: MIC broth microdilution, Alamar Blue; format: cell-based; conditions: minimum inhibitory concentration
C. glabrata = assay: MIC broth microdilution, Alamar Blue; format: cell-based; conditions: minimum inhibitory concentration
S. aureus 13709 = assay: MIC broth microdilution, Alamar Blue; format: cell-based; conditions: minimum inhibitory concentration
P. aeruginosa = assay: MIC broth microdilution, Alamar Blue; format: cell-based; conditions: minimum inhibitory concentration
Leishmania donovani = assay: Antileishmanial assay, Leishmania in infected macrophages (L. donovani); conditions: for Selectivity Index: IC50 for HepG2 cells/IC50 for Leishmania donovani; for IC50: Leishmania donovani, Macrophage
[2] = Body and organ weights of infected, treated BALB/c mice; format: in vivo
Method: (§1) Compounds 47, 48, and 50 were then evaluated in animal studies with BALB/c mice with leishmaniasis. Compounds were delivered via i.p. injection at 10 mg/kg, with untreated, vehicle, and miltefosine controls as described in Table 2. […] Miltefosine, the only oral treatment currently available to treat leishmaniasis in humans, was also evaluated in the BALB/c mice for comparison purposes.

[3] = system: leishmaniasis (LV82 PM infection), liver parasitemia; assay: In vivo efficacy: liver parasitemia in BALB/c mice with leishmaniasis; conditions: 10 mg/kg i.p.; for % Reduction (Average) in liver parasitemia: infected BALB/c mice
Method: The following protocols were used to prepare the various treatments described in Table 2: • a. Miltefosine ([…] stock solution in sterile PBS): 7.5 mg miltefosine was weighed and put in a eppendorf tube, then 0.75 mL of sterile PBS was added. After vortexing, a clear solution was formed. Make 1 mg/mL solution daily by diluting 100 μL of 10 mg/mL miltefosine solution in 900 μL sterile PBS. • b. Vehicle control: 5% (v/v) DMSO, 50% (v/v) PEG 400, 10% (v/v) Ethanol, and 35% (v/v) distilled water. • c. Compound 47 (2 mg/mL solution of compound 47 in PEG 400/Ethanol vehicle): […]. Dilute the above solution 1:20 with PEG 400/EtOH/water daily. After vortexing and warming up at 37° C. for 30 min., a clear solution formed. • d. Compound 48 (2 mg/mL solution of compound 48 in PEG 400/Ethanol vehicle): 6.8 mg of compound 48 was dissolved in 0.17 mL of DMSO to make a 40 mg/mL stock solution. After vortexing, a yellowish-brown solution was formed. Diluted the above solution 1:20 with PEG 400/EtOH/water daily. After vortexing a clear solution formed. • e. Compound 50 (2 mg/mL solution of compound 50 in PEG 400/Ethanol vehicle): 8.4 mg of compound 50 was dissolved in 0.21 mL of DMSO to make a 40 mg/mL stock solution. After vortexing, a dark yellowish-brown solution was formed. Diluted the above solution 1:20 with PEG 400/EtOH/water. After vortexing a clear solution formed.
as §1

Leishmania amazonensis = assay: Antileishmanial assay, Leishmania in infected macrophages (L. amazonensis); conditions: Leishmania amazonensis; for IC50: Macrophage, read-out: IC50 Leishmania in infected macrophages
[4] = HepG2, read-out: IC50 mammalian HepG2 cells
[5] = read-out: IC50 Leishmania in infected macrophages

| SMILES | MIC S. pyogenes (S. pyogenes) | MIC C. albicans (C. albicans) | IC50 (HepG2 cells; [4]) | MIC B. anthracis (B. anthracis) | MIC E. faecalis (E. faecalis) | IC50 [1] | MIC B. subtilis (B. subtilis) | MIC C. glabrata (C. glabrata) | MIC S. aureus (S. aureus 13709) | MIC P. aeruginosa (P. aeruginosa) | Selectivity Index (Leishmania donovani) | IC50 (Leishmania donovani; [5]) | other results |
| --- | --- | --- | --- | --- | --- | --- | --- | --- | --- | --- | --- | --- | --- |
| C=C[C@@H](C#CC#C[C@H](O)CCC)OC(C)=O [Compound 20, (3S,8R)-8-hydroxyundeca-1-en-4,6-diyn-3-yl acetate] | 250 | 250 | 57000 ± 2000 nM | 1000 | 1000 | 9.18 µg/mL | 250 | 250 | 1000 | >1000 | 290 | 197 nM |  |
| C=C[C@@H](C#CC#C[C@@H](CCCCCCCCC)NS(C)(=O)=O)OC(C)=O [Compound 46, (3S,8R)-8-(methylsulfonamido)heptadeca-1-en-4,6-diyn-3-yl acetate] | 8 | >1000 | 29000 ± 1000 nM | >1000 | >1000 | 4.47 µg/mL | 4 | >1000 | >1000 | >1000 | 530 | 55 nM |  |
| C=C[C@H](O)C#CC#C[C@H](O)CCCCCCCCC [Compound 50, (3S,8R)-heptadeca-1-en-4,6-diyne-3,8-diol] | 8 | 16 | 38000 ± 2000 nM | 1000 | 16 | 0.271 µg/mL (≈ 1.03 µM) | 2 | 8 | 16 | 4 | 2900 | 13 nM | IC50 (HepG2 cells; HepG2, read-out: IC50 against the HepG2 cell line): 38000 ± 2000 nM; Body weight ([2]; 10 mg/kg i.p., individual mice, Table 4): 15.7 g and 14.6 g and 14.1 g and 13.4 g; Mean body weight of mice Post-treatment ([2]; post-treatment, 10 mg/kg i.p., group mean): 14.5 g; Mean body weight of mice Pre-treatment ([2]; pre-treatment (baseline), group mean): 16.3 g; LDU mean ± SD ([3]; group mean, n=4): 2367.2; % Reduction (Average) in liver parasitemia [3]: 41.2%; % Reduction (Average) in liver parasitemia ([3]; listed as compound 50): 41%; # of amastigotes per 200 nuclei ([3]; liver, individual mice): 628 and 557 and 643 and 612; LDU ([3]; total liver parasitemia, individual mice): 2737.5 and 2143.9 and 2654.9 and 1932.7; IC50 (Leishmania donovani; read-out: IC50 anti-Leishmanial): 13 nM |
| C=C[C@@H](C#CC#C[C@H](O)CCCCCCCCCCCCCCC)OC(C)=O (stereo in doubt) [Compound 44, (3S,8R)-8-hydroxytricosa-1-en-4,6-diyn-3-yl acetate] | >1000 | >1000 |  | >1000 | >1000 | 2.14 µg/mL | >1000 | >1000 | >1000 | >1000 |  | 287 nM |  |
| C=C[C@@H](C#CC#C[C@@H](CCCCCCCCC)OS(C)(=O)=O)OC(C)=O [Compound 49, (3S,8R)-8-((methylsulfonyl)oxy)heptadeca-1-en-4,6-diyn-3-yl acetate] | 125 | >1000 |  | 250 | 500 | 2.13 µg/mL | 250 | >1000 | 250 | >1000 |  | 61 nM |  |
| C=C[C@H](C#CC#C[C@@H](O)CCCCCCCCC)OC(C)=O [Compound 3, (3R,8S)-8-hydroxyheptadeca-1-en-4,6-diyn-3-yl acetate] |  |  |  |  |  | 8.15 µg/mL |  |  |  |  |  |  | anti-Leishmanial activity at 10 μM (Leishmania amazonensis): no anti-Leishmanial activity; IC50 (Leishmania amazonensis): > 10000 nM |
| C=C[C@@H](C#CC#C[C@H](N)CCCCCCCCC)OC(C)=O [Compound 45, (3S,8R)-8-aminoheptadeca-1-en-4,6-diyn-3-yl acetate] | 250 | 250 |  | 250 | 1000 |  | 250 | 500 | 1000 | >1000 |  |  |  |
| C=C[C@H](C#CC#C[C@H](O)CCCCCCCCC)OC(C)=O [Compound 2, (3R,8R)-8-hydroxyheptadeca-1-en-4,6-diyn-3-yl acetate] |  |  |  |  |  | 8.07 µg/mL |  |  |  |  |  |  | anti-Leishmanial activity at 10 μM (Leishmania amazonensis): no anti-Leishmanial activity; IC50 (Leishmania amazonensis): > 10000 nM |
